According to BigSolDB 2.1:

Compound: CN1COCNC1=N[N+](=O)[O-]
- solubility (mole fraction) (in DMF, 293.15 K): 0.0947
- solubility (mole fraction) (in DMF, 298.15 K): 0.113
- solubility (mole fraction) (in DMF, 303.15 K): 0.12
- solubility (mole fraction) (in DMF, 308.15 K): 0.138
- solubility (mole fraction) (in DMF, 313.15 K): 0.141
- solubility (mole fraction) (in DMF, 318.15 K): 0.165
- solubility (mole fraction) (in DMF, 323.15 K): 0.166
- solubility (mole fraction) (in DMSO, 293.15 K): 0.0794
- solubility (mole fraction) (in DMSO, 298.15 K): 0.0978
- solubility (mole fraction) (in DMSO, 303.15 K): 0.104
- solubility (mole fraction) (in DMSO, 308.15 K): 0.115
- solubility (mole fraction) (in DMSO, 313.15 K): 0.12
- solubility (mole fraction) (in DMSO, 318.15 K): 0.123
- solubility (mole fraction) (in DMSO, 323.15 K): 0.14
- solubility (mole fraction) (in acetonitrile, 293.15 K): 0.0241
- solubility (mole fraction) (in acetonitrile, 298.15 K): 0.0318
- solubility (mole fraction) (in acetonitrile, 303.15 K): 0.0336
- solubility (mole fraction) (in acetonitrile, 308.15 K): 0.0411
- solubility (mole fraction) (in acetonitrile, 313.15 K): 0.0436
- solubility (mole fraction) (in acetonitrile, 318.15 K): 0.0547
- solubility (mole fraction) (in acetonitrile, 323.15 K): 0.0563
- solubility (mole fraction) (in dichloromethane, 293.15 K): 0.0126
- solubility (mole fraction) (in dichloromethane, 298.15 K): 0.0154
- solubility (mole fraction) (in dichloromethane, 303.15 K): 0.0162
- solubility (mole fraction) (in dichloromethane, 308.15 K): 0.0233
- solubility (mole fraction) (in dichloromethane, 313.15 K): 0.0234
- solubility (mole fraction) (in dichloromethane, 318.15 K): 0.0265
- solubility (mole fraction) (in dichloromethane, 323.15 K): 0.0277
- solubility (mole fraction) (in ethanol, 293.15 K): 0.00163
- solubility (mole fraction) (in ethanol, 298.15 K): 0.00212
- solubility (mole fraction) (in ethanol, 303.15 K): 0.00241
- solubility (mole fraction) (in ethanol, 308.15 K): 0.00351
- solubility (mole fraction) (in ethanol, 313.15 K): 0.00379
- solubility (mole fraction) (in ethanol, 318.15 K): 0.00445
- solubility (mole fraction) (in ethanol, 323.15 K): 0.00507
- solubility (mole fraction) (in ethyl acetate, 293.15 K): 0.00579
- solubility (mole fraction) (in ethyl acetate, 298.15 K): 0.00614
- solubility (mole fraction) (in ethyl acetate, 303.15 K): 0.00633
- solubility (mole fraction) (in ethyl acetate, 308.15 K): 0.0074
- solubility (mole fraction) (in ethyl acetate, 313.15 K): 0.00773
- solubility (mole fraction) (in ethyl acetate, 318.15 K): 0.00866
- solubility (mole fraction) (in ethyl acetate, 323.15 K): 0.0106
- solubility (mole fraction) (in ethylene glycol, 293.15 K): 0.00157
- solubility (mole fraction) (in ethylene glycol, 298.15 K): 0.00248
- solubility (mole fraction) (in ethylene glycol, 303.15 K): 0.00289
- solubility (mole fraction) (in ethylene glycol, 308.15 K): 0.00439
- solubility (mole fraction) (in ethylene glycol, 313.15 K): 0.00447
- solubility (mole fraction) (in ethylene glycol, 318.15 K): 0.00527
- solubility (mole fraction) (in ethylene glycol, 323.15 K): 0.00893
- solubility (mole fraction) (in isopropanol, 293.15 K): 0.00101
- solubility (mole fraction) (in isopropanol, 298.15 K): 0.0013
- solubility (mole fraction) (in isopropanol, 303.15 K): 0.0013
- solubility (mole fraction) (in isopropanol, 308.15 K): 0.00175
- solubility (mole fraction) (in isopropanol, 313.15 K): 0.00242
- solubility (mole fraction) (in isopropanol, 318.15 K): 0.00285
- solubility (mole fraction) (in isopropanol, 323.15 K): 0.00303
- solubility (mole fraction) (in methanol, 293.15 K): 0.00289
- solubility (mole fraction) (in methanol, 298.15 K): 0.00422
- solubility (mole fraction) (in methanol, 303.15 K): 0.00447
- solubility (mole fraction) (in methanol, 308.15 K): 0.00532
- solubility (mole fraction) (in methanol, 313.15 K): 0.00682
- solubility (mole fraction) (in methanol, 318.15 K): 0.00759
- solubility (mole fraction) (in methanol, 323.15 K): 0.00978
- solubility (mole fraction) (in methyl acetate, 293.15 K): 0.00741
- solubility (mole fraction) (in methyl acetate, 298.15 K): 0.00839
- solubility (mole fraction) (in methyl acetate, 303.15 K): 0.00936
- solubility (mole fraction) (in methyl acetate, 308.15 K): 0.0115
- solubility (mole fraction) (in methyl acetate, 313.15 K): 0.0124
- solubility (mole fraction) (in methyl acetate, 318.15 K): 0.0133
- solubility (mole fraction) (in methyl acetate, 323.15 K): 0.0157
- solubility (mole fraction) (in n-butanol, 293.15 K): 0.00199
- solubility (mole fraction) (in n-butanol, 298.15 K): 0.00218
- solubility (mole fraction) (in n-butanol, 303.15 K): 0.00234
- solubility (mole fraction) (in n-butanol, 308.15 K): 0.00279
- solubility (mole fraction) (in n-butanol, 313.15 K): 0.00308
- solubility (mole fraction) (in n-butanol, 318.15 K): 0.00321
- solubility (mole fraction) (in n-butanol, 323.15 K): 0.00362
- solubility (mole fraction) (in n-propanol, 293.15 K): 0.00109
- solubility (mole fraction) (in n-propanol, 298.15 K): 0.00146
- solubility (mole fraction) (in n-propanol, 303.15 K): 0.00195
- solubility (mole fraction) (in n-propanol, 308.15 K): 0.00217
- solubility (mole fraction) (in n-propanol, 313.15 K): 0.00247
- solubility (mole fraction) (in n-propanol, 318.15 K): 0.00301
- solubility (mole fraction) (in n-propanol, 323.15 K): 0.00441
